US12550885B2, “Red blood cell storage solutions, solution additives, and methods for improving the storage of red blood cells” (University of Cincinnati, priority 2016, dated 2026)

Assays:
human pRBCs [1] = experiment: Microparticle formation in stored human pRBCs (Nanoparticle Tracking Analysis); format: cell-based; conditions: human pRBCs stored at 4° C., increasing doses added prior to storage
Experimental: (§1) Human pRBCs were obtained from Hoxworth Blood Bank (Cincinnati, OH) and stored at 4° C. for 42 days according to standard blood banking practice. Murine pRBCs were obtained as previously described. Briefly, donor mice were anesthetized with intraperitoneal pentobarbital (0.1 mg/g body weight) and blood was collected via cardiac puncture into CP2D anticoagulant-coated syringes. CP2D was then added to the whole blood in a 1:7 ratio and gently mixed. Whole blood was centrifuged at 1,000 g for 10 minutes at 4° C. and platelet-rich plasma was discarded. Storage solution (AS-3) was added to erythrocytes in a 2:9 ratio using the original whole blood volume. Units were stored at 4° C. for 14 days.
(§2) Erythrocytes were pelleted from pRBC samples at 2,000 g for 10 minutes at 4° C. The supernatant from this spin was then centrifuged at 10,000 g for 10 minutes at 4° C. to pellet any remaining cells or platelets. The MP-rich supernatant from this second spin was used to characterize MP production and hemolysis. MPs were pelleted using a 20,000 g spin for 30 minutes at 4° C.

mouse pRBCs [2] = experiment: Microparticle formation in stored mouse pRBCs (Nanoparticle Tracking Analysis); format: cell-based; conditions: mouse pRBCs stored at 4° C. for 14 days, inhibitor added prior to storage
Experimental: as §1, §2

human pRBCs [3] = experiment: Hemolysis (cell-free hemoglobin) in stored human pRBCs; format: cell-based; conditions: human pRBCs stored at 4° C., increasing AT concentration
Experimental: as §1
(§3) Erythrocytes were pelleted from pRBC samples at 2,000 g for 10 minutes at 4° C. The supernatant from this spin was then centrifuged at 10,000 g for 10 minutes at 4° C. to pellet any remaining cells or platelets. The MP-rich supernatant from this second spin was used to characterize MP production and hemolysis. […]
(§4) Hemoglobin in the MP-rich supernatant was quantified using a Coulter AcT diff Analyzer (Beckman Coulter Corp., Brea, CA). Cell size (forward scatter), complexity (side scatter), phosphatidylserine exposure (annexin V positivity), and band 3 protein integrity (eosin-5-maleimide^68) were analyzed using an Attune flow cytometer (Life Technologies, Carlsbad, CA). […]

mouse pRBCs [4] = experiment: Hemolysis (cell-free hemoglobin) in stored mouse pRBCs; format: cell-based; conditions: mouse pRBCs stored at 4° C. for 14 days, inhibitor added prior to storage
Experimental: as §1, §3, §4

mouse erythrocytes = experiment: Erythrocyte characterization by flow cytometry (size, complexity, phosphatidylserine exposure, band 3 integrity); format: cell-based
Experimental: as §1
Hemoglobin in the MP-rich supernatant was quantified using a Coulter AcT diff Analyzer (Beckman Coulter Corp., Brea, CA). Cell size (forward scatter), complexity (side scatter), phosphatidylserine exposure (annexin V positivity), and band 3 protein integrity (eosin-5-maleimide^68) were analyzed using an Attune flow cytometer (Life Technologies, Carlsbad, CA). Antibodies for ter119, CD235a, CD41, CD45, and Annexin V were acquired from BD Biosciences (San Diego, CA), and eosin-5-maleimide was obtained from Life Technologies (Carlsbad, CA).

C57BL/6 mice = experiment: Lung inflammation after transfusion of aged pRBCs, histology (edema, Gr1 inflammatory cells, ZO1 tight junctions); format: in vivo, mouse; conditions: 200 μl IV aged pRBCs treated with 125 μM AT, lungs taken 6 hours after transfusion
Experimental: Male C57BL/6 mice aged 8-10 weeks were purchased from Jackson Laboratories, fed standard laboratory diet and water ad libitum, and acclimated for 1 week in climate-controlled conditions with 12 hours light-dark cycles prior to use. Asm-deficient mice (Asm^−/−) on a C57BL/6 background were used and compared to syngenic C57Bl/6 wild type mice as controls. All experiments were approved by the Institutional Animal Care and Use Committee at the University of Cincinnati. To study the effect of AT treatment on lung inflammation following blood transfusion, mice received 200 μl IV injections of pRBCs or MPs. Lungs were taken 6 hours after transfusion for either histologic or Evans blue evaluation. Histologic lung sections were examined for evidence of lung edema with hematoxylin and inflammatory cells with anti-Gr1 antibodies (AbD Serotec, Raleigh, NC). Tight junction integrity was assessed by staining lung slides with Cy3-conjugated anti-ZO1 (Jackson ImmunoResearch, West Grove, PA). Endothelial cell permeability was assessed using the Evans blue method (source). In brief, mice were weighed and injected with 30 mg/kg Evans blue. After 10 minute of circulation time, mice were sacrificed and the pulmonary vasculature was flushed with 10 ml PBS. Lungs were dried at 55° C. for 24 hours and then incubated in 500 μl formamide for 48 hours at 55° C. Evans blue extraction calculated by measuring the optical density at 620 nm and comparing to a standard curve, and values were normalized to dry lung weight.

Structure (SMILES)	MP formation (human pRBCs [1])	MP formation (mouse pRBCs [2])	hemolysis (cell-free hemoglobin) (human pRBCs [3])	hemolysis (cell-free hemoglobin) (mouse pRBCs [4])	age-related phosphatidylserine expression (annexin V positivity) (mouse erythrocytes; aged mouse erythrocytes)	age-related decrease in cell complexity (side scatter) (mouse erythrocytes; stored mouse erythrocytes)	reduction of band 3 degradation (eosin-5-maleimide) (mouse erythrocytes; stored mouse erythrocytes, 125 μM AT)	age-related decrease in cell size (forward scatter) (mouse erythrocytes; stored mouse pRBCs)	disruption of tight junctions in the lung (ZO1) (C57BL/6 mice)	inflammatory cell recruitment to the lungs (C57BL/6 mice)	lung edema (C57BL/6 mice)
CN(C)CCC=C1c2ccccc2CCc2ccccc21 [AT, Amitriptyline]	dose-dependent reduction of MP formation	dose-dependent reduction of MP formation	dose-dependent reduction in hemolysis	dose-dependent reduction in hemolysis	reduced this age-related phosphatidylserine expression in a dose dependent manner	mitigated	~50%	mitigated	mitigated	greatly reduced	greatly reduced
CNCCC(Oc1ccc(C(F)(F)F)cc1)c1ccccc1 (stereo not drawn) [Fluoxetine]				reduced hemolysis							
